The OligoGym collection
These antisense oligonucleotides have a phosphorothioate backbone; sugars and methylation of C are not fully specified.

biological target: RHOB; details: ASO
Note: test concentration or dose not given here.

First: CTCTGTGCGGACATGCTC
Second: GACATGCTCGTCGCTGCG
The remaining target (mRNA or protein) (fraction of control) of the first is lower: 0.61 for the first, no less than 1 for the second.

GAGTCCGGGCTGTCCACC and GATGCAGCCGTTCTGGGA cannot be ordered by remaining target (mRNA or protein) (fraction of control): no less than 1 for the first, no less than 1 for the second.

GCACGTCTTGCCACACGC and GCCGTCTCGAAGACCTCG cannot be ordered by remaining target (mRNA or protein) (fraction of control): no less than 1 for the first, no less than 1 for the second.

Compared with GCCGTTCTGGGAGCCGTA, GGGATGTTCTCCAGCGAG is lower in remaining target (mRNA or protein) (fraction of control): no less than 1 for the first, 0.67 for the second.

Compared with GTAGTCGTAGGCTTGGAT, GTCCTTACTGAACACGAT is higher in remaining target (mRNA or protein) (fraction of control): 0.71 for the first, 0.95 for the second.

First: GTCTTGGCAGAGCACTCG
Second: GTTCCTGCTTCATGCGGG
The remaining target (mRNA or protein) (fraction of control) of the first is higher: 0.8 for the first, 0.73 for the second.

First: GTTCTGGGAGCCGTAGCG
Second: GTTGATGCAGCCGTTCTG
The remaining target (mRNA or protein) (fraction of control) of the first is lower: 0.64 for the first, 0.93 for the second.

First: TCGGCCACATAGTTCTCG
Second: TGCGGGCCAGCTCTGTGC
The remaining target (mRNA or protein) (fraction of control) of the first is higher: 0.87 for the first, 0.69 for the second.

TGTGCGGACATGCTCGTC and TTACTGAACACGATCAGC cannot be ordered by remaining target (mRNA or protein) (fraction of control): no less than 1 for the first, no less than 1 for the second.

biological target: MAP3K1; details: ASO

Compared with AATCCTTTTCCAGTTTTCTC, ACATACTTAGGTAAGGGTTC is lower in remaining target (mRNA or protein) (fraction of control): 0.87 for the first, 0.56 for the second.

Compared with ACCATTCTTGCAGAACTCAA, AGTAACCATTCTTGCAGAAC is higher in remaining target (mRNA or protein) (fraction of control): 0.55 for the first, no less than 1 for the second.

First: ATCATGATTTGTCAATCACA
Second: ATTGGGTACTGTAGTAACCA
The remaining target (mRNA or protein) (fraction of control) of the first is higher: 0.62 for the first, 0.54 for the second.

First: ATTTCCACCTCATCTGCATA
Second: CAAGGCTGGAAACATTAATT
The remaining target (mRNA or protein) (fraction of control) of the first is lower: 0.44 for the first, 0.94 for the second.

First: CAGAAATGTCCTCTGAACTG
Second: CAGTCCGCCCGCTCGCGGCC
The remaining target (mRNA or protein) (fraction of control) of the first is higher: 0.5 for the first, 0.34 for the second.

Compared with CAGTTTTGAAAACACATGGG, CATTCTTGCAGAACTCAAGT is lower in remaining target (mRNA or protein) (fraction of control): no less than 1 for the first, 0.54 for the second.

Going from CCACCGACTCGGTAAGGTGG to CCACTGGCCTCGTTCATAGC, the remaining target (mRNA or protein) (fraction of control) falls from 0.81 to 0.21.

First: CCCACTCCCCGCTGCGTCCG
Second: CTGGTGAAGTGAGTGGAAAC
The remaining target (mRNA or protein) (fraction of control) of the first is lower: 0.06 for the first, 0.76 for the second.

First: CTGTAGTAACCATTCTTGCA
Second: CTGTTCAGTGGCATCATGGC
The remaining target (mRNA or protein) (fraction of control) of the first is lower: 0.4 for the first, 0.49 for the second.

First: GAATCCCTGAAGTCTATGCT
Second: GAGAAAACTTGCGCTGTGTT
The remaining target (mRNA or protein) (fraction of control) of the first is higher: 0.52 for the first, 0.37 for the second.

First: GCAACCCTTTGAGAGTTTCT
Second: GCACTAGTTTGGGCTTTTGC
The remaining target (mRNA or protein) (fraction of control) of the first is higher: 0.32 for the first, 0.28 for the second.

First: GCTCCTCCGCCGCCGCCTGC
Second: GGCAGCCGCGCGCGCGCTGC
The remaining target (mRNA or protein) (fraction of control) of the first is lower: 0.27 for the first, 0.81 for the second.

First: GGGGTACTGTAGTAACCATT
Second: GGTACTGTAGTAACCATTCT
The remaining target (mRNA or protein) (fraction of control) of the first is higher: 0.55 for the first, 0.53 for the second.

Compared with GTAGATATCAATGTGGTTCC, GTAGTAACCATTCTTGCAGA is lower in remaining target (mRNA or protein) (fraction of control): 0.75 for the first, 0.42 for the second.

Compared with GTCTGCCTTTTGTTTGAACC, GTTGTCGTTGTAAAGTGTCT is lower in remaining target (mRNA or protein) (fraction of control): 0.67 for the first, 0.45 for the second.

First: GTTTCCAGATAGTTGTTGGG
Second: TAACCATTCTTGCAGAACTC
The remaining target (mRNA or protein) (fraction of control) of the first is higher: 0.85 for the first, 0.59 for the second.

Compared with TACTGTAGTAACCATTCTTG, TAGTTGATCTGTATAATTGG is higher in remaining target (mRNA or protein) (fraction of control): 0.74 for the first, no less than 1 for the second.

Compared with TCAGGCAGCTGGTCCAGCTC, TTCTTGCAGAACTCAAGTAG is higher in remaining target (mRNA or protein) (fraction of control): 0.52 for the first, no less than 1 for the second.

Compared with TTGTTGAACTAGAAGGTCCT, TTGTTGAGCATCCTGTTTCT is lower in remaining target (mRNA or protein) (fraction of control): 0.57 for the first, 0.39 for the second.

First: TTGTTTTCAGGACAGTTTCT
Second: TTTTGCATACTGAGCTTAGG
The remaining target (mRNA or protein) (fraction of control) of the first is higher: 0.65 for the first, 0.48 for the second.

biological target: SMAD7; details: ASO

AAAACAGAACACAAACGA and AAAACCTGATGTCACCAG cannot be ordered by remaining target (mRNA or protein) (fraction of control): no less than 1 for the first, no less than 1 for the second.

Compared with AACCTTTGTAGTTAGAAA, AATTGGTTCTGGTTCGGC is higher in remaining target (mRNA or protein) (fraction of control): 0.94 for the first, no less than 1 for the second.

ACACACAGGATGGGAGCA and ACCTTGTGTACCAACAGC cannot be ordered by remaining target (mRNA or protein) (fraction of control): no less than 1 for the first, no less than 1 for the second.

First: ACTCACACACACTCCTGA
Second: AGAAGTTGGGAATCTGAA
The remaining target (mRNA or protein) (fraction of control) of the first is lower: 0.79 for the first, no less than 1 for the second.

Going from AGCACCGAGTGCGTGAGC to AGCCTCTTGACTTCCGAG, the remaining target (mRNA or protein) (fraction of control) rises from 0.72 to no less than 1.

AGGAGGCGAGGAGAAAAG and AGGCGGCCGGGCAGCAGG cannot be ordered by remaining target (mRNA or protein) (fraction of control): no less than 1 for the first, no less than 1 for the second.

First: AGTCTGCAGTTGGTTTGA
Second: AGTTCGCAGAGTCGGCTA
The remaining target (mRNA or protein) (fraction of control) of the first is higher: no less than 1 for the first, 0.68 for the second.

ATTCAGCTAGGTGATAAC and ATTTCCAATGAGAATGCT cannot be ordered by remaining target (mRNA or protein) (fraction of control): no less than 1 for the first, no less than 1 for the second.

Going from CAATCTTGTGTTTATCTT to CCCTCCTCCTCGTCCTCG, the remaining target (mRNA or protein) (fraction of control) falls from no less than 1 to 0.72.

Going from CGAACATGACCTCCGCAC to CGACAGCAGCAGCAGCAG, the remaining target (mRNA or protein) (fraction of control) rises from 0.52 to 0.82.

Compared with CTCCGGCTGCCCCACCCC, CTGATCTGCACGGTAAAG is higher in remaining target (mRNA or protein) (fraction of control): 0.52 for the first, no less than 1 for the second.

Going from CTGCCCCTTCTTCCAAAA to GAGATCCAGGAGCAGATG, the remaining target (mRNA or protein) (fraction of control) rises from 0.68 to 0.78.

Compared with GATGGTACCTTGGGTTAT, GCCGATTTTGCTCCGCAC is lower in remaining target (mRNA or protein) (fraction of control): 0.94 for the first, 0.78 for the second.

Compared with GCTCAGCTCACGCTCTGT, GCTGTCCGTCGCCCCTTC is higher in remaining target (mRNA or protein) (fraction of control): 0.62 for the first, 0.87 for the second.

GGACATCCCCGCTTGCTG and GGACTTGATGAAGATGGG cannot be ordered by remaining target (mRNA or protein) (fraction of control): no less than 1 for the first, no less than 1 for the second.

Going from GGCAAAAGCCATTCCCCT to GGCAGCTGCTGATGAACT, the remaining target (mRNA or protein) (fraction of control) rises from 0.72 to 0.86.

GTAGAAGAAATGAAAGAA and GTATGCCACCACGCACCA cannot be ordered by remaining target (mRNA or protein) (fraction of control): no less than 1 for the first, no less than 1 for the second.

First: GTTGTCTCCCCATCTGCC
Second: TGCATGAAAAGCAAGCAC
The remaining target (mRNA or protein) (fraction of control) of the first is higher: no less than 1 for the first, 0.91 for the second.

Going from TGCCCAGGTACTGCCTCT to TGCTTGGATTTCTGCTTC, the remaining target (mRNA or protein) (fraction of control) rises from 0.72 to 0.89.

Going from TGGACACAGTAGAGCCTC to TTGGGACTGCAAACCTCT, the remaining target (mRNA or protein) (fraction of control) falls from no less than 1 to 0.91.

biological target: PTPN11; details: ASO

Compared with AAACCATCTCCGCGATGTCA, AAAGAATCAAACCGTTCTCC is higher in remaining target (mRNA or protein) (fraction of control): 0.41 for the first, 0.58 for the second.

Going from AAAGTCATTCACCGTGTTTT to AAGAATATCAATCACAATGA, the remaining target (mRNA or protein) (fraction of control) rises from 0.54 to no less than 1.

Compared with ACACCAGTGATATTTGGGTG, ACATAAACTTTCTTGCGTCT is lower in remaining target (mRNA or protein) (fraction of control): no less than 1 for the first, 0.88 for the second.

Compared with ACCATCTCCGCGATGTCATG, ACGGACCCGCTCCTTGCTCA is higher in remaining target (mRNA or protein) (fraction of control): 0.33 for the first, 0.48 for the second.

First: AGAGCATACTCATCAGGCCA
Second: ATCTATTTCTGTGCTGAAGT
The remaining target (mRNA or protein) (fraction of control) of the first is lower: 0.2 for the first, 0.66 for the second.

Going from ATCTGCACAGTTCAGAGGAT to ATGCTCTCCTGCTTATGGTG, the remaining target (mRNA or protein) (fraction of control) falls from 0.51 to 0.37.

Going from ATGTCATGTTCCTCCCGCCC to CACGTTTTCATAGACTCTAG, the remaining target (mRNA or protein) (fraction of control) rises from 0.43 to 0.71.

First: CATCTCCGCGATGTCATGTT
Second: CATGTTCCTCCCGCCCTCCG
The remaining target (mRNA or protein) (fraction of control) of the first is higher: 0.49 for the first, 0.29 for the second.

Going from CCCTTGTCCAACCTTTGAAA to CCTGCGCTGTAGTGTTTCAA, the remaining target (mRNA or protein) (fraction of control) rises from 0.25 to 0.5.

First: CGATGTCATGTTCCTCCCGC
Second: CGCACCATCTGGATGGTTTT
The remaining target (mRNA or protein) (fraction of control) of the first is lower: 0.4 for the first, 0.5 for the second.

First: CGCGATGTCATGTTCCTCCC
Second: CTGTGGTCTCAGCTAATTTG
The remaining target (mRNA or protein) (fraction of control) of the first is higher: 0.45 for the first, 0.35 for the second.

Compared with GAAAGAACAAAATCTCCAGG, GGCAGGTTTTCTCATCTGAA is lower in remaining target (mRNA or protein) (fraction of control): no less than 1 for the first, 0.84 for the second.

First: GGCCCGCTCGGGACCGGACG
Second: GTCATGTTCCTCCCGCCCTC
The remaining target (mRNA or protein) (fraction of control) of the first is higher: 0.75 for the first, 0.24 for the second.

First: TACAAGAAAACTACCATGTT
Second: TCAACCACATTGCAAGCCTT
The remaining target (mRNA or protein) (fraction of control) of the first is higher: no less than 1 for the first, 0.27 for the second.

Going from TCATCTGAAACTTTTCTGCT to TCCACCATAGGATTCTTCTT, the remaining target (mRNA or protein) (fraction of control) falls from 0.84 to 0.43.

Compared with TCCACTCGTCTGGTCCGCTA, TCCGCGATGTCATGTTCCTC is lower in remaining target (mRNA or protein) (fraction of control): 0.29 for the first, 0.26 for the second.

Compared with TCTCCGCGATGTCATGTTCC, TGTTCCTCCCGCCCTCCGGC is higher in remaining target (mRNA or protein) (fraction of control): 0.43 for the first, no less than 1 for the second.

Going from TTCCATGTAATACTGGACCA to TTCTTCCCAAAAGCCTTGTT, the remaining target (mRNA or protein) (fraction of control) rises from 0.29 to 0.67.

Going from TTGATGTGGGTGACAGCTCC to TTGCATTGATGTAATCTGAA, the remaining target (mRNA or protein) (fraction of control) rises from 0.42 to 0.98.

With TTTAAATGGTTTCAAATTTT the remaining target (mRNA or protein) (fraction of control) was no less than 1.
